Test results: patent US12558428B2, “Heterobifunctional compounds and their use in treating disease” (Halda Therapeutics OpCo, Inc., priority 2024, dated 2026)
Like-named read-outs stand apart in the source and are kept apart here.

What was measured:
Format in all cases: cell-based
[1] = test system: T-Rex 293 cells lacking increased expression of estrogen receptor alpha protein; assay: Cellular growth inhibition assay, T-Rex 293 cells, (−) doxycycline; conditions: 72 hours
Method in brief: (§1)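 Cells of an inducible ERα-expressing T-Rex 293 clone are seeded in charcoal-dextran FBS medium with or without 3 ng/mL doxycycline, then treated after 24 h with compound dilutions (0.5% DMSO) for 72 h. Growth inhibition is measured by CellTiter-Glo luminescence and expressed as GI50.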

[2] = test system: T-Rex 293 cells having increased expression of estrogen receptor alpha protein; assay: Cellular growth inhibition assay, T-Rex 293 cells, (+) doxycycline; conditions: 72 hours
Method in brief: as §1

[3] = test system: MCF7 cells (ATCC #HTB-22); assay: Cellular growth inhibition assay, MCF7 cells purchased from ATCC; conditions: Table 8-A, MCF7 cells purchased from ATCC, six days, CellTiter-Glo, read-out: GI50
Method in brief: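 GI50 values come from a four-parameter fit of CellTiter-Glo 2.0 luminescence after six days of compound exposure at 37° C. Seeding density depended on the source: 225 cells/well for ECACC MCF7, 1,500 for ATCC. Medium was RPMI 1640 with 10% FBS and 0.2 U/ml insulin.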

[4] = T-REx-293, 72 h, Table 7-A, T-Rex 293 cells without doxycycline (lacking increased ERα expression), CellTiter-Glo, read-out: (−) Dox GI50
[5] = T-REx-293, 72 h, Table 7-A, T-Rex 293 cells with doxycycline (increased ERα expression), CellTiter-Glo, read-out: (+) Dox GI50
[6] = T-REx-293, 72 h, T-Rex 293 cells without doxycycline, CellTiter-Glo 2.0, read-out: (−) Dox TRex ERa (GI50)
[7] = T-REx-293, 72 h, T-Rex 293 cells with doxycycline-induced ERα expression, CellTiter-Glo 2.0, read-out: (+) Dox TRex ERa (GI50)

Row | SMILES | GI50 ([3]; Homo sapiens, MCF7, 144 h) | GI50 [3] | GI50 [1, 4] | GI50 [2, 5] | GI50 ([1]; Table 7-A, T-Rex 293 cells without doxycycline (lacking increased ERα expression), CellTiter-Glo, read-out: (−) Dox GI50) | GI50 ([2]; Table 7-A, T-Rex 293 cells with doxycycline (increased ERα expression), CellTiter-Glo, read-out: (+) Dox GI50) | GI50 [1, 6] | GI50 [2, 7]
1 | COc1ccc(-c2sc3cc(OC)ccc3c2C(=O)c2ccc(OCCN3CCC4(CC3)CC(Oc3ccc(C5=N[C@@H](Cc6ncco6)c6nnc(C)n6-c6sc(C)c(C)c65)cc3)C4)cc2)cc1 [IV-55] | < 50 nM | – | 500 to 2500 nM | < 50 nM | – | – | – | –
2 | Cc1sc2c(c1C)C(c1ccc(N3CC4(CC(CN5CCN(c6ccc(C7=C(c8ccccc8Cl)CCCc8cc(C(=O)O)ccc87)c(F)c6)CC5)C4)C3)cc1)=N[C@@H](C)c1nnc(C)n1-2 [IV-58] | < 50 nM | – | 500 to 2500 nM | < 50 nM | – | – | – | –
3 | CC1=C(c2c(F)cc(F)cc2F)[C@H](c2ccc(OCC(=O)N3CCC4(CC3)CCN(c3ccc(C5=N[C@@H](C)c6nnc(C)n6-c6sc(C)c(C)c65)cc3)C4)cc2)Oc2ccc(O)cc21 [V-27] | 50 to 500 nM | – | 500 to 2500 nM | < 50 nM | – | – | – | –
4 | CC1=C(c2c(F)cc(F)cc2F)[C@@H](c2ccc(N3CCC(CN4CCC5(CC4)CN(c4ccc(C6=N[C@@H](C)c7nnc(C)n7-c7sc(C)c(C)c76)cc4)C5)CC3)cc2)Oc2ccc(O)cc21 [V-20] | 50 to 500 nM | – | 500 to 2500 nM | < 50 nM | – | – | – | –
5 | Cc1sc2c(c1C)C(c1ccc(N3CCN(CCN4CC(Oc5ccc(C6=C(c7ccc(Cl)cc7Cl)CCCc7cc(C(=O)O)ccc76)cc5)C4)CC3)cc1)=N[C@@H](C)c1nnc(C)n1-2 [IV-3] | 50 to 500 nM | – | 500 to 2500 nM | < 50 nM | – | – | – | –
6 | Cc1sc2c(c1C)C(c1ccc(OCCOCCOc3cc(F)c([C@@H]4c5[nH]c6ccccc6c5C[C@@H](C)N4CC(C)(C)F)c(F)c3)cc1)=N[C@@H](C)c1nnc(C)n1-2 [I-23, (S)-4-(4-(2-(2-(3,5-difluoro-4-((1R,3R)-2-(2-fluoro-2-methylpropyl)-3-methyl-2,3,4,9-tetrahydro-1H-pyrido[3,4-b]indol-1-yl)phenoxy)ethoxy)ethoxy)phenyl)-2,3,6,9-tetramethyl-6H-thieno[3,2-f][1,2,4]triazolo[4,3-a][1,4]diazepine] | 50 to 500 nM | – | – | – | – | – | 500 to 2500 nM | 500 to 2500 nM
7 | Cn1cc(-c2cc(C(C)(C)O)ccc2Oc2ccc(CC3CC4(CCN(CCOc5ccc(C(=O)c6c(-c7ccc(O)cc7)sc7cc(O)ccc67)cc5)CC4)C3)cc2)c2cc[nH]c2c1=O [I-24, 4-(2-(4-((7-(2-(4-(6-hydroxy-2-(4-hydroxyphenyl)benzo[b]thiophene-3-carbonyl)phenoxy)ethyl)-7-azaspiro[3.5]nonan-2-yl)methyl)phenoxy) -5-(2-hydroxypropan-2-yl)phenyl)-6-methyl-1,6-dihydro-7H-pyrrolo[2,3-c]pyridin-7-one] | < 50 nM | – | – | – | – | – | 50 to 500 nM | 50 to 500 nM
8 | Cc1sc2c(c1C)C(c1ccc(N3CCC(O)(CN4CCN(c5ccc(C6=C(c7ccc(F)cc7)CCCc7cc(C(=O)O)ccc76)cc5)CC4)CC3)cc1)=N[C@@H](C)c1nnc(C)n1-2 [IV-37] | < 50 nM | – | 500 to 2500 nM | < 50 nM | – | – | – | –
9 | CC1=C(c2c(F)cc(F)cc2F)C(c2ccc(N3CCN(CC4CN(c5ccc(C6=N[C@@H](C)c7nnc(C)n7-c7sc(C)c(C)c76)cc5)C4)CC3)cc2)Oc2ccc(O)cc21 (stereo partly drawn) [V-21] | < 50 nM | – | 50 to 500 nM | < 50 nM | – | – | – | –

Further lines, with some results ahead:

Row | GI50 ([3]; Homo sapiens, MCF7, 144 h) | GI50 [3] | SMILES | GI50 [1, 4] | GI50 [2, 5] | GI50 ([1]; Table 7-A, T-Rex 293 cells without doxycycline (lacking increased ERα expression), CellTiter-Glo, read-out: (−) Dox GI50) | GI50 ([2]; Table 7-A, T-Rex 293 cells with doxycycline (increased ERα expression), CellTiter-Glo, read-out: (+) Dox GI50) | GI50 [1, 6] | GI50 [2, 7]
10 | 50 to 500 nM | – | Cc1sc2c(c1C)C(c1ccc(N3CCN(CC4CCN(c5ccc([C@@H]6c7ccc(O)cc7CC[C@@H]6c6ccccc6)cc5)CC4)CC3)cc1)=N[C@H](Cn1cccn1)c1nnc(C)n1-2 [III-216] | > 2500 nM | > 2500 nM | – | – | – | –
11 | 50 to 500 nM | – | Cc1sc2c(c1C)C(c1ccc(N[C@H]3CC[C@@H](NCCOc4ccc([C@@H]5c6ccc(O)cc6CC[C@@H]5c5ccccc5)cc4)CC3)cc1)=NC(Cc1ncco1)c1nnc(C)n1-2 (stereo partly drawn) [III-52] | 50 to 500 nM | 50 to 500 nM | – | – | – | –
12 | 50 to 500 nM | – | Cc1sc2c(c1C)C(c1ccc(N3CCC4(CC3)CCN(c3ccc([C@@H]5c6ccc(O)cc6CC[C@@H]5c5ccccc5)cc3)C4)cc1)=N[C@@H](C)c1nnc(C)n1-2 [III-117] | 500 to 2500 nM | 500 to 2500 nM | – | – | – | –
13 | 50 to 500 nM | – | Cc1sc2c(c1C)C(c1ccc(C3CCN(C[C@@H]4[C@H]5CN(c6ccc([C@H]7c8ccc(O)cc8CC[C@H]7c7ccccc7)cc6)C[C@@H]45)CC3)cc1)=N[C@@H](C)c1nnc(C)n1-2 [III-22] | 500 to 2500 nM | < 50 nM | – | – | – | –
14 | 50 to 500 nM | – | Cc1sc2c(c1C)C(c1ccc(OCC3CCN(CCOc4ccc([C@H]5c6ccc(O)cc6CC[C@H]5c5ccccc5)cc4)CC3)cc1)=N[C@@H](Cc1ncco1)c1nnc(C)n1-2 [III-112] | 50 to 500 nM | 50 to 500 nM | – | – | – | –
15 | 50 to 500 nM | – | Cc1sc2c(c1C)C(c1ccc(CCN3CC4(CCN(c5ccc([C@@H]6c7ccc(O)cc7CC[C@@H]6c6ccccc6)cc5)CC4)C3)cc1)=N[C@@H](C)c1nnc(C)n1-2 [III-98] | 500 to 2500 nM | < 50 nM | – | – | – | –
16 | 50 to 500 nM | – | Cc1sc2c(c1C)C(c1ccc(N3CCN(C[C@@H]4[C@H]5CN(c6ccc([C@@H]7c8ccc(O)cc8CC[C@@H]7c7ccccc7)cc6)C[C@@H]45)CC3)cc1)=N[C@@H](C)c1nnc(C)n1-2 [III-23] | > 2500 nM | < 50 nM | – | – | – | –
17 | 50 to 500 nM | – | Cc1sc2c(c1C)C(c1ccc(N3CC4(CCC(CN5CCC(c6ccc([C@@H]7c8ccc(O)cc8CC[C@@H]7c7ccccc7)cc6)CC5)CC4)C3)cc1)=N[C@@H](C)c1nnc(C)n1-2 [III-229] | 500 to 2500 nM | < 50 nM | – | – | – | –
18 | 50 to 500 nM | – | Cc1sc2c(c1C)C(c1ccc(NCC3CCCN(CCOc4ccc([C@@H]5c6ccc(O)cc6CC[C@@H]5c5ccccc5)cc4)C3)cc1)=NC(Cc1ncco1)c1nnc(C)n1-2 (stereo partly drawn) [III-53] | 50 to 500 nM | 50 to 500 nM | – | – | – | –
19 | – | < 50 nM | Cc1sc2c(c1C)C(c1ccc(N3CC(CN4CC(CC5CN(c6ccc([C@@H]7c8ccc(O)cc8CC[C@@H]7c7ccccc7)cc6)C5)C4)C3)cc1)=N[C@@H](C)c1nnc(C)n1-2 [III-221] | – | – | 50 to 500 nM | < 50 nM | – | –
20 | 500 to 2500 nM | – | COC1(CN2CCN(c3ccc([C@@H]4c5ccc(O)cc5CC[C@@H]4c4ccccc4)cc3)CC2)CCN(c2ccc(C3=N[C@@H](C)c4nnc(C)n4-c4sc(C)c(C)c43)cc2)CC1 [III-121] | > 2500 nM | 500 to 2500 nM | – | – | – | –
21 | 50 to 500 nM | – | Cc1sc2c(c1C)C(c1ccc(NC3CCCN(CCOc4ccc([C@@H]5c6ccc(O)cc6CC[C@@H]5c5ccccc5)cc4)CC3)cc1)=NC(Cc1ncco1)c1nnc(C)n1-2 (stereo partly drawn) [III-34] | 50 to 500 nM | < 50 nM | – | – | – | –
22 | 50 to 500 nM | – | Cc1sc2c(c1C)C(c1ccc(N3CCC(O)(CN4CCN(c5ccc([C@H]6c7ccc(O)cc7CC[C@H]6c6c(F)cccc6F)c(F)c5)CC4)CC3)cc1)=N[C@@H](C)c1nnc(C)n1-2 [III-294] | 50 to 500 nM | 50 to 500 nM | – | – | – | –
23 | 50 to 500 nM | – | Cc1sc2c(c1C)C(c1ccc(N3CCC4(CCN(Cc5ccc([C@@H]6c7ccc(O)cc7CC[C@@H]6c6ccccc6)cc5)CC4)CC3)cc1)=N[C@@H](C)c1nnc(C)n1-2 [III-129] | 500 to 2500 nM | 50 to 500 nM | – | – | – | –
24 | 50 to 500 nM | – | Cc1sc2c(c1C)C(c1ccc(N3CCC(O)(CN4CCN(c5ccc([C@H]6c7ccc(O)cc7CC[C@H]6c6cccc(F)c6F)c(F)c5)CC4)CC3)cc1)=N[C@@H](C)c1nnc(C)n1-2 [III-271] | 50 to 500 nM | 50 to 500 nM | – | – | – | –
25 | 50 to 500 nM | – | COc1cc(N2CCN(CC3(O)CCN(c4cc(F)c(C5=N[C@@H](C)c6nnc(C)n6-c6sc(C)c(C)c65)cc4F)CC3)CC2)c(F)cc1[C@H]1c2ccc(O)cc2CC[C@H]1c1ccccc1 [III-342, 1-(2,5-difluoro-4-((6S)-2,3,6,9-tetramethyl-6H-thieno[3,2-f][1,2,4]triazolo[4,3-a][1,4]diazepin-4-yl)phenyl)-4-((4-(2-fluoro-4-((1R,2R)-6-hydroxy-2-phenyl-1,2,3,4-tetrahydronaphthalen-1-yl)-5-methoxyphenyl)piperazin-1-yl)methyl)piperidin-4-ol] | 50 to 500 nM | 50 to 500 nM | – | – | – | –
26 | < 50 nM | – | Cc1sc2c(c1C)C(c1ccc(N3CCC4(CCN(CCOc5ccc([C@@H]6c7ccc(O)cc7CC[C@@H]6c6ccccc6)cc5)C4)CC3)cc1)=NC(Cc1ncco1)c1nnc(C)n1-2 (stereo partly drawn) [III-36] | 50 to 500 nM | < 50 nM | – | – | – | –
27 | < 50 nM | – | Cc1sc2c(c1C)C(c1ccc(N3CCC(O)(CN4CCN(c5cc(F)c([C@@H]6c7ccc(O)cc7CC[C@@H]6c6ccccc6)cc5F)CC4)CC3)cc1F)=N[C@@H](C)c1nnc(C)n1-2 [III-304] | 500 to 2500 nM | < 50 nM | – | – | – | –
28 | 50 to 500 nM | – | Cc1sc2c(c1C)C(c1ccc(N3CCC(C)(CN4CCC(c5ccc([C@@H]6c7ccc(O)cc7CC[C@@H]6c6ccccc6)cc5)CC4)CC3)cc1)=N[C@@H](C)c1nnc(C)n1-2 [III-145] | 500 to 2500 nM | 500 to 2500 nM | – | – | – | –
29 | < 50 nM | – | Cc1cc(N2CCN(CC3(O)CCN(c4ccc(C5=N[C@@H](C)c6nnc(C)n6-c6sc(C)c(C)c65)cc4)CC3)CC2)c(F)cc1[C@@H]1c2ccc(O)cc2CC[C@@H]1c1ccccc1 [III-286] | 500 to 2500 nM | < 50 nM | – | – | – | –
